For assay [1], the system named is Thoracic aorta. In words: Anti-atherosclerosis activity in Sprague-Dawley rat thoracic aortic vascular ring endothelial injury model assessed as decrease in VEGF level at 50 uM by ELISA. In kind it is functional, tissue-based. (In general: An ELISA detects its analyte on a solid surface through an enzyme-linked reagent.)
The test system of assay [2] is A7R5. In words: Antiproliferative activity against rat A7r5 cells at 10 uM after 24 hrs by MTT assay. The assay is classed as functional, cell-based.
The test system of assay [3] is Thoracic aorta. In words: Anti-atherosclerosis activity in Sprague-Dawley rat thoracic aortic vascular ring endothelial injury model assessed as reduction in vascular endothelial proliferation after 13 days by hematoxylin and eosin staining based assay. In kind it is functional, tissue-based.
In assay [4] the test system is Thoracic aorta. In words: Anti-atherosclerosis activity in Sprague-Dawley rat thoracic aortic vascular ring endothelial injury model assessed as decrease in CRP level at 25 uM by ELISA. In kind it is functional, tissue-based.
Assay [5] has as its system Thoracic aorta. In words: Anti-atherosclerosis activity in Sprague-Dawley rat thoracic aortic vascular ring endothelial injury model assessed as appearance of smooth vascular endothelial surface after 13 days by hematoxylin and eosin staining based assay. The assay is classed as functional, tissue-based.
Assay [6] concerns Thoracic aorta. In words: Anti-atherosclerosis activity in Sprague-Dawley rat thoracic aortic vascular ring endothelial injury model assessed as decrease in JNK2 level at 50 uM by ELISA. The assay is classed as functional, tissue-based.
In another assay the test system is RAW264.7. In words: Anti-inflammatory activity in mouse RAW264.7 cells assessed as inhibition of LPS/IFN-induced NO production at 10 to 20 uM measured 48 hrs post LPS/IFN challenge by Griess assay. In kind it is functional, cell-based. (In general: The Griess reaction detects nitrite, a stable product of nitric oxide.)
Assay [7] has as its system Thoracic aorta. In words: Anti-atherosclerosis activity in Sprague-Dawley rat thoracic aortic vascular ring endothelial injury model assessed as decrease in CRP level by ELISA. The assay is classed as functional, tissue-based.
Assay [8] relates to Thoracic aorta. In words: Anti-atherosclerosis activity in Sprague-Dawley rat thoracic aortic vascular ring endothelial injury model assessed as decrease in CRP level at 50 uM by ELISA. In kind it is functional, tissue-based.
For assay [9], the system named is A7R5. In words: Antiproliferative activity against rat A7r5 cells at 50 uM after 24 hrs by MTT assay. In kind it is functional, cell-based. A general note: Tetrazolium dyes change colour on reduction, which living cells bring about.
Assay [10] relates to Thoracic aorta. In words: Anti-atherosclerosis activity in Sprague-Dawley rat thoracic aortic vascular ring endothelial injury model assessed as decrease in JNK2 level at 25 uM by ELISA. In kind it is functional, tissue-based.
The test system of assay [11] is Thoracic aorta. In words: Anti-atherosclerosis activity in Sprague-Dawley rat thoracic aortic vascular ring endothelial injury model assessed as decrease in VEGF level at 25 uM by ELISA. In kind it is functional, tissue-based.
For assay [12], the system named is A7R5. In words: Antiproliferative activity against rat A7r5 cells at 100 uM after 24 hrs by MTT assay. In kind it is functional, cell-based.
The subject of assay [13] is Thoracic aorta. In words: Anti-atherosclerosis activity in Sprague-Dawley rat thoracic aortic vascular ring assessed as restoration of injured vessel after 13 days by hematoxylin and eosin staining based assay. In kind it is functional, tissue-based.
The test system of assay [14] is Thoracic aorta. In words: Anti-atherosclerosis activity in Sprague-Dawley rat thoracic aortic vascular ring endothelial injury model assessed as decrease in p38 level at 25 to 50 uM by ELISA. In kind it is functional, tissue-based.

Calls of active or inactive are those of the source. The calls are words filed in the database; no cut-off is given here.

As to `O=c1c(O)c(-c2ccc(O)cc2)oc2cc(O)cc(O)c12`, the outcome in the assay with Thoracic aorta [1], with Thoracic aorta [4], in the assay on Thoracic aorta [5], in the assay with Thoracic aorta [6], with Thoracic aorta [8] and in the assay on A7R5 [9] was Active. Moreover, the result in the assay with Thoracic aorta [10] and with Thoracic aorta [11] was Active. Besides, the result in the assay with A7R5 [2], in the assay with Thoracic aorta [3] and in the assay with A7R5 [12] was inactive. Moreover, the inhibition entry with RAW264.7 is “Active”. The Activity entry in the assay on Thoracic aorta [7] is “Dose-dependent effect”.

Regarding `O=c1c(O[C@@H]2O[C@H](CO)[C@@H](O)[C@H](O)[C@H]2O)c(-c2ccc(O)cc2)oc2cc(O)cc(O)c12`, the outcome with Thoracic aorta [1], in the assay with Thoracic aorta [3], with Thoracic aorta [4], with Thoracic aorta [5], in the assay with Thoracic aorta [6] and with Thoracic aorta [8] was Active. Besides, the result in the assay with A7R5 [9] and in the assay with Thoracic aorta [13] was Active. In addition, the outcome in the assay on A7R5 [2] and in the assay with A7R5 [12] was inactive. Besides, in the assay on RAW264.7, the inhibition entry is “Active”.

Take `C[C@@H]1O[C@@H](OC[C@H]2O[C@@H](Oc3cc(O)c4c(c3)O[C@H](c3ccc(O)cc3)CC4=O)[C@H](O)[C@@H](O)[C@@H]2O)[C@H](O)[C@H](O)[C@H]1O`: the outcome in the assay with Thoracic aorta [1], in the assay on Thoracic aorta [14], in the assay on Thoracic aorta [5] and in the assay with Thoracic aorta [8] was Active. Also, the result in the assay on A7R5 [2], in the assay on Thoracic aorta [3], with A7R5 [9] and in the assay with A7R5 [12] was inactive. Also, in the assay with RAW264.7, the inhibition entry was “Active”.

In the case of `C[C@@H]1O[C@@H](O[C@H]2[C@H](Oc3cc(O)c4c(c3)O[C@H](c3ccc(O)cc3)CC4=O)O[C@H](CO)[C@@H](O)[C@@H]2O)[C@H](O)[C@H](O)[C@H]1O`, the outcome with Thoracic aorta [1], in the assay on Thoracic aorta [14], with Thoracic aorta [5], in the assay on Thoracic aorta [6] and in the assay with Thoracic aorta [8] was Active. The result with A7R5 [2], in the assay on Thoracic aorta [3], in the assay with A7R5 [9] and in the assay on A7R5 [12] was inactive. Further, the inhibition result in the assay on RAW264.7 was “Active”.

For `O=c1cc(-c2ccc(O)c(O)c2)oc2cc(O)cc(O)c12`, the result in the assay on Thoracic aorta [1], in the assay on Thoracic aorta [4], in the assay with Thoracic aorta [5], with Thoracic aorta [8] and in the assay on Thoracic aorta [11] was Active. The outcome in the assay with A7R5 [2], with Thoracic aorta [3], in the assay on A7R5 [9] and with A7R5 [12] was inactive. For the same compound, the inhibition result in the assay with RAW264.7 was “Active”.

`O=C1C[C@@H](c2ccc(O)c(O)c2)Oc2cc(O)cc(O)c21`: the outcome in the assay with Thoracic aorta [1], in the assay with Thoracic aorta [14], in the assay with Thoracic aorta [4], with Thoracic aorta [5], in the assay with Thoracic aorta [6] and with Thoracic aorta [8] was Active. The result in the assay on A7R5 [9] was Active. The outcome with A7R5 [2], in the assay with Thoracic aorta [3] and in the assay on A7R5 [12] was inactive. Also, in the assay with RAW264.7, the inhibition result is “Active”.

As for `O=c1cc(-c2ccc(O)c(O)c2)oc2cc(O[C@@H]3O[C@H](CO)[C@@H](O)[C@H](O)[C@H]3O)cc(O)c12`, the result with Thoracic aorta [1], with Thoracic aorta [4], with Thoracic aorta [5], with Thoracic aorta [8] and with A7R5 [9] was Active. The outcome in the assay on A7R5 [2], with Thoracic aorta [3] and in the assay on A7R5 [12] was inactive. Moreover, the inhibition entry in the assay with RAW264.7 is “Active”.

Source of the values: ChEMBL document CHEMBL4020758, “Anti-atherosclerotic activities of flavonoids from the flowers of Helichrysum arenarium L. MOENCH through the pathway of anti-inflammation” (Bioorg Med Chem Lett, 2017).
